Species: Rattus norvegicus
Test: DrugMatrix - Regimen: Daily Repeat
Assay type: toxicity, organism-based, Sprague-Dawley
Design: regimen Daily Repeat, gender Male, age 6-8 weeks
Settings: in vivo, po, route oral GAVAGE, […]; for URIC ACID / ALANINE AMINOTRANSFERASE / ALBUMIN / ALKALINE PHOSPHATASE / ASPARTATE AMINOTRANSFERASE / BLOOD UREA NITROGEN / CARBON DIOXIDE / CHOLESTEROL / CREATINE PHOSPHOKINASE / CREATININE / GLUCOSE / LACTATE DEHYDROGENASE / LIPASE / TOTAL BILIRUBIN / TOTAL PROTEIN: tissue Plasma; for ABSOLUTE BASOPHIL / ABSOLUTE EOSINOPHIL / ABSOLUTE LYMPHOCYTE / ABSOLUTE MONOCYTE / ABSOLUTE SEGMENTED NEUTROPHIL / BASOPHIL / EOSINOPHIL / ERYTHROCYTE COUNT / HEMATOCRIT / HEMOGLOBIN / LEUKOCYTE COUNT / LYMPHOCYTE / MEAN CORPUSCULAR HEMOGLOBIN / MEAN CORPUSCULAR HEMOGLOBIN CONCENTRATION / MEAN CORPUSCULAR VOLUME / MONOCYTE / NEUTROPHIL / NUCLEATED RED BLOOD CELLS / PLATELET COUNT: tissue Blood
[1] = 72 h, dose 2.5 mg/Kg, dose level Low, time 3 day
[2] = 120 h, dose 2.5 mg/Kg, dose level Low, time 5 day

CC/C(=C(\c1ccccc1)c1ccc(OCCN(C)C)cc1)c1ccccc1 [TAMOXIFEN]
URIC ACID (64 mg/kg, 120 h, dose level High, time 5 day): 0.67 mg/dL | ABSOLUTE BASOPHIL [1]: 0 CELLS/uL | ABSOLUTE EOSINOPHIL [1]: 0 CELLS/uL | ABSOLUTE LYMPHOCYTE [1]: 5987.33 CELLS/uL | ABSOLUTE MONOCYTE [1]: 0 CELLS/uL | ABSOLUTE SEGMENTED NEUTROPHIL [1]: 346 CELLS/uL | BASOPHIL [1]: 0% | EOSINOPHIL [1]: 0% | ERYTHROCYTE COUNT [1]: 5.38 x10E6/uL | HEMATOCRIT [1]: 32.47% | HEMOGLOBIN [1]: 12.63 G/DL | LEUKOCYTE COUNT [1]: 6.33 x10E3/uL | LYMPHOCYTE [1]: 94.33% | MEAN CORPUSCULAR HEMOGLOBIN [1]: 23.5 pg | MEAN CORPUSCULAR HEMOGLOBIN CONCENTRATION [1]: 38.9 G/DL | MEAN CORPUSCULAR VOLUME [1]: 60.4 fL | MONOCYTE [1]: 0% | NEUTROPHIL [1]: 5.67% | NUCLEATED RED BLOOD CELLS [1]: 0 /100WBC | PLATELET COUNT [1]: 919.67 x10E3/uL | ALANINE AMINOTRANSFERASE [1]: 63.33 u/L | ALBUMIN [1]: 3.8 G/DL | ALKALINE PHOSPHATASE [1]: 412.33 u/L | ASPARTATE AMINOTRANSFERASE [1]: 76.33 u/L | BLOOD UREA NITROGEN [1]: 11 mg/dL | CARBON DIOXIDE [1]: 34 mmol/L | CHOLESTEROL [1]: 44.33 mg/dL | CREATINE PHOSPHOKINASE [1]: 193 u/L | CREATININE [1]: 0.1 mg/dL | GLUCOSE [1]: 160.67 mg/dL | LACTATE DEHYDROGENASE [1]: 89 u/L | LIPASE [1]: 10 u/L | TOTAL BILIRUBIN [1]: 0.13 mg/dL | TOTAL PROTEIN [1]: 5.67 G/DL | URIC ACID [1]: 0.57 mg/dL | ABSOLUTE BASOPHIL [2]: 0 CELLS/uL | ABSOLUTE EOSINOPHIL [2]: 0 CELLS/uL | ABSOLUTE LYMPHOCYTE [2]: 7101.67 CELLS/uL | ABSOLUTE MONOCYTE [2]: 21.33 CELLS/uL | ABSOLUTE SEGMENTED NEUTROPHIL [2]: 443.67 CELLS/uL | BASOPHIL [2]: 0% | EOSINOPHIL [2]: 0% | ERYTHROCYTE COUNT [2]: 5.73 x10E6/uL | HEMATOCRIT [2]: 35.9% | HEMOGLOBIN [2]: 14 G/DL | LEUKOCYTE COUNT [2]: 7.57 x10E3/uL | LYMPHOCYTE [2]: 93.67% | MEAN CORPUSCULAR HEMOGLOBIN [2]: 24.43 pg | MEAN CORPUSCULAR HEMOGLOBIN CONCENTRATION [2]: 39.07 G/DL | MEAN CORPUSCULAR VOLUME [2]: 62.63 fL | MONOCYTE [2]: 0.33% | NEUTROPHIL [2]: 6% | NUCLEATED RED BLOOD CELLS [2]: 0.33 /100WBC | PLATELET COUNT [2]: 1179.33 x10E3/uL | ALANINE AMINOTRANSFERASE [2]: 95 u/L | ALBUMIN [2]: 4.13 G/DL | ALKALINE PHOSPHATASE [2]: 534.33 u/L | ASPARTATE AMINOTRANSFERASE [2]: 94.33 u/L | BLOOD UREA NITROGEN [2]: 11.33 mg/dL | CARBON DIOXIDE [2]: 31 mmol/L | CHOLESTEROL [2]: 43 mg/dL | CREATINE PHOSPHOKINASE [2]: 303.67 u/L | CREATININE [2]: 0.1 mg/dL | GLUCOSE [2]: 148.33 mg/dL | LACTATE DEHYDROGENASE [2]: 142.67 u/L | LIPASE [2]: 10.67 u/L | TOTAL BILIRUBIN [2]: 0.1 mg/dL | TOTAL PROTEIN [2]: 6 G/DL | URIC ACID [2]: 0.73 mg/dL

Reference: ChEMBL document CHEMBL3885881, “DrugMatrix”
